Assays:
DLD-1 cells = assay: Effect of CRAF protein fragment on cell growth, number of living cells by WST assay (CCK-8); type: cell-based, human; settings: 1.0×10^4 cells seeded (similar tendency at 2.0×10^4), transfected with pcDNA-hRAF384, 100 ng plasmid per well, 0-96 h, control empty vector pcDNA3.1(+), FIG. 5 part B
Protocol: (§1) The CRAF protein fragment expression plasmid pcDNA-hRAF384 (5807 bp) was prepared by cloning the region of positions 332 to 718 of the human CRAF gene (SEQ ID NO: 6) downstream of a CMV (cytomegalovirus) promoter in the vector pcDNA3.1(+) (Thermo Fisher Scientific). The plasmid expresses a CRAF protein fragment (a polypeptide having the amino acid sequence set forth in SEQ ID NO: 9) of positions 56 to 184 of the human CRAF protein (SEQ ID NO: 5).
DLD-1 cells (KRAS mutation-positive human colon cancer cells) were obtained from JCRB Cell Bank of National Institutes of Biomedical innovation, Health and Nutrition. Since DLD-1 cells have KRAS in which the position 13 amino acid glycine (G) is activatingly mutated to aspartic acid (D), the RAS/RAF/MEK/ERK signaling cascade is activated in DLD-1 cells.
(§2) The HCT116 or DLD-1 cells were seeded at 1.0×10^4 or 2.0 x 10^4 cells per well of 96-well plates and cultured in a McCoy's SA medium in an environment of 5% CO2 at 37° C. for 24 h. The cultured cells were transfected with the CRAF protein fragment expression plasmid pcDNA-hRAF384 using Lipofectamine 3000 (Thermo Fisher Scientific). As a control, the cells were transfected with the empty vector pcDNA3.1(+) (Thermo Fisher Scientific). […]
(§3) Immediately (0 h), 24 h, 48 h, 72 h, and 96 h after the cultivation, the cells were collected and measured for the number of living cells by WST assay. […]

HCT116 cells = assay: as above; type: cell-based, human; settings: 1.0×10^4 cells seeded (similar tendency at 2.0×10^4), transfected with pcDNA-hRAF384, 100 ng plasmid per well, 0-96 h, control empty vector pcDNA3.1(+), FIG. 5 part A
Protocol: as §1
HCT116 cells (KRAS mutation-positive human colon cancer cells) were obtained from ATCC. Since HCT116 cells have KRAS in which the position 13 amino acid glycine (G) is activatingly mutated to aspartic acid (D), the RAS/RAF/ME/ERK signaling cascade is activated in HCT116 cells.
as §2, §3

Question: Which “cell growth (number of living cells) as compared to the control” value (DLD-1 cells) does the source give for “CRAF protein fragment: Polypeptide of SEQ ID NO: 9, positions 56 to 184 of human CRAF protein, expressed from plasmid pcDNA-hRAF384” here?
Answer: reduced growth

Question: What about the “cell growth (number of living cells) as compared to the control” value (HCT116 cells) of the same substance?
Answer: reduced growth
